Source: US20250276993A1, “PSEUDO-DISACCHARIDE COMPOUNDS” (UNIVERSITEIT LEIDEN, priority 2022, published 2025)

Assays:
rHPSE = biological target: T1, rHPSE (Homo sapiens, UniProt Q9Y251); assay: in-gel competitive ABPP, recombinant HPSE; format: biochemical; conditions: apparent IC50, in-gel competitive ABPP-based assay; read-out: In vitro IC50 rHPSE
T1 sequence (Q9Y251 36-109 limits assumed): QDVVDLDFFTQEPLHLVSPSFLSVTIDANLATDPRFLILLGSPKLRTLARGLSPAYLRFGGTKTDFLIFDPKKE
T1 sequence (Q9Y251 158-543 limits assumed): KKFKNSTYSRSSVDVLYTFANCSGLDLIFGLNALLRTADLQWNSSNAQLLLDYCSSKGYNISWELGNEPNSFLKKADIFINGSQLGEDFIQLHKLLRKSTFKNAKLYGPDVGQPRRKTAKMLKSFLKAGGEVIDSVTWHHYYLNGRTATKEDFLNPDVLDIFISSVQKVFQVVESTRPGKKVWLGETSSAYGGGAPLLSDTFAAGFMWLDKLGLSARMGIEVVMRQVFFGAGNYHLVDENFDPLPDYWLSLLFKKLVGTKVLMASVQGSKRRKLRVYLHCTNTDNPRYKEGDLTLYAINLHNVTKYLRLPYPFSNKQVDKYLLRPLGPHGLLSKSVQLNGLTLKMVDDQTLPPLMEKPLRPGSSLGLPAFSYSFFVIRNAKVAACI
Experimental: ABP labelling reactions were carried out in Mcllvaine buffer (pH 5.5), 300 mM NaCl. For recombinant proteins 200 fmol of EcGH2, BpHep, AcGH79, HPSE or proHPSE was used (20 nM in 10 μl final reaction volume). For labeling cell lysates, 4-20 μg total protein was used. Labeling reactions were initiated by the addition of ABP compounds 7, 8 or 9 to a final concentration of 100 nM (unless otherwise specified), before incubation for 30 min at 37° C. with shaking. Following labeling, samples were denatured by boiling with Laemmli buffer for 5 min and resolved by SDS-PAGE. Gels were scanned using Typhoon-5 laser scanner platform (Cytiva), using the λEX 635 nm laser and 670BP30 emission filter. For competitive ABPP (cABPP) experiments, protein mixtures were preincubated with inhibitor (or buffer only control) for 1 h at 37° C. with shaking, before the addition of 7 to a final concentration of 100 nM, and subsequent incubation for 30 min at 37° C. with shaking. SDS-PAGE and analysis steps were carried out as above. For quantitative measurements, fluorescently labeled band intensities were calculated using Imagequant (Cytiva), and normalized to the corresponding band in the inhibitor free control lane. cABPP plots were prepared and analyzed using SigmaPlot 14.0 (Systat).
Competitive activity of compounds 2, 12 and 13 were investigated using cABPP Assay 2.
To gain insight into HPSE structure-activity relationships, apparent HPSE inhibition was tested for cyclitol 12, its disaccharidic analogue 13 and parent HPSE inhibitor 2 (FIG. 7a). […] Conversely, 13 could inactivate rHPSE down to 2 μM inhibitor concentration similar to 2.

HPSE [1] = biological target: T2, HPSE (Homo sapiens, UniProt Q9Y251); assay: Fondaparinux cleavage assay; format: biochemical
T2 sequence (Q9Y251 36-109 limits assumed): T1 sequence (Q9Y251 36-109 limits assumed)
T2 sequence (Q9Y251 158-543 limits assumed): T1 sequence (Q9Y251 158-543 limits assumed)

HPSE [2] = biological target: T2, HPSE; assay: HSPG digest assay, recombinant HPSE; format: biochemical
Experimental: ECM coated 35 mm culture dishes containing ^35S labelled HS were prepared as previously described (Vlodavsky et al., Curr. Protoc. Cell. Biol., Chapter 10, Unit 10, 14). Briefly, bovine corneal endothelial cells were plated at an initial density of 2×10^5 cells/ml, with 4% dextran T-40 (Sigma) included in the growth medium. Na2^35SO4 (25 μCi/ml) was added to the incubation medium on days 2 and 5 after seeding. On day 12, subendothelial ECM is exposed by dissolving the cells with PBS containing 0.5% Triton X-100 and 20 mM NH4OH, followed by four washes with PBS. For HS-degradation assays, ECM coated dishes were incubated with 200 ng recombinant HPSE in 1 mL reaction mixture (10 mM buffer Phosphate-Citrate pH 6.0, 50 mM NaCl, 1 mM DTT, 1 mM CaCl2) containing HPSE inhibitors or DMSO control. Plates were incubated at 37° C. for 5 h, then assay medium collected and applied to a 0.9×30 cm Sepharose 6B size exclusion column. The Sepharose 6B column was eluted with PBS, and ^35S radioactivity of 0.2 mL fractions quantitated using a liquid scintillation analyzer (Packard BioScience). Digest assays with U87 cell lysates were carried out in a similar fashion, except plates were incubated for 18 h with cell extracts prepared from 1×10^6 U87 glioma cells lysed by 3× freeze/thaw cycles.
The compounds of the invention were assessed against HPSE degradation of bona fide HSPGs in a physiologically relevant ECM-like environment. Cultured bovine corneal […] cells secrete a subendothelial basement membrane material rich in HSPGs, and their growth in the presence of ^35SO4^2− results in ^35S radiolabeled HSPGs (Vlodavsky et al., Curr Protoc Cell Biol, Chapter 10, Unit 10, 4, 2001). H^35S chains attached to these HSPGs are detectable after solubilization by HPSE, with enzyme inhibition leading to a corresponding reduction of signal.

HPSE [3] = biological target: T2, HPSE; assay: cABPP Assay 1, recombinant HPSE; format: biochemical; conditions: 1 h preincubation at 37° C., pH 5.5, 100 nM ABP 7
HPSE [4] = biological target: T2, HPSE; assay: X-ray crystallography, ligand soaking of HPSE crystals; conditions: crystal soaking
Excerpt: Xray diffraction data were collected at 100 K at beamlines i03 (HPSE-2, HPSE-3, HPSE-4, EcGUSB-1, BpHep-3), i04 (AcGH79-2, BpHep-2) and i04-1 (Apo-AcGH79, AcGH79-1, AcGH79-3) of the Diamond Light Source UK. Reflections were autoprocessed using the XIA2 pipeline. Complexes were solved by directly refining against their unliganded structures where isomorphous, or else solved by molecular replacement with PHASER (search model PDB accessions: 5E98 (HPSE), 3VNY (AcGH79), 3K46 (EcGUSB), 5BWI (BpHep)). […] Ligand coordinates were built using jLigand. Diagrams were generated using PyMOL.
HPSE—Well diffracting crystals of HPSE were obtained by the sitting-drop vapor-diffusion method at 20° C. using a well solution containing 0.1 M MES pH 5.5, 0.1 M MgCl2, 17% (w/v) PEG 3350, and a protein to well solution ratio of 200 nl:500 nl. Crystals typically appeared after 1 week. Inhibitor ligand complexes were obtained by transferring HPSE crystals to drops of well solution supplemented with 25% (v/v) ethylene glycol and 1-5 mM inhibitor. Crystals were incubated with ligand for ˜2-4 h, then directly harvested and flash-cooled in LN2 for data collection.
To better understand the molecular basis of interaction between our inhibitors and their targets, we turned to X-ray crystallography, using ligand soaking to derivatize enzymes in crystallo.

IC50 (rHPSE): 300 ± 200 nM | fold more potent than reference inhibitors #98 (10) and OGT2115 (11) (HPSE [1]): approximately 2 fold | inhibition of HPSE degradation of 35S-labelled HSPGs (HPSE [2]; 200 ng recombinant HPSE, pH 6.0, 5 h): robust, dose dependent inhibition | concentration giving comparable levels of inhibition (HPSE [2]; HSPG digest, recombinant HPSE): 1 µM
SMILES: CC(=O)NC1C(O)[C@H](O)C(CO)O[C@@H]1O[C@H]1C(O)C(O)[C@@H]2OC2C1C(=O)O (stereo partly drawn) [Compound 2, 4-O-(2-N-acetyl-2-deoxy-D-glucopyranosyl)-glucurono-cyclophellitol]
HPSE inhibition (abrogation of labelling by ABP 7) (HPSE [3]): inhibited HPSE at nanomolar concentrations | binding mode in HPSE active site cleft (HPSE [4]): covalent linkages between their pseudo-anomeric carbons and the enzyme nucleophile Glu343
